Legend:
[1] = Stability test: storage at 30° or 37° C. for 12 months, amount of therapeutic agent remaining assayed at 2 and 12 months; format: physicochemical
[2] = Stability in the presence of acid or of polyethylene glycol (general statements, no test described); format: physicochemical
[3] = cited from earlier work

- % remaining after 2 months at 37° C. [1]: Dec
- % remaining after 12 months at 30° C. [1]: Dec
- % remaining after 12 months at 37° C. [1]: Dec
- % remaining after 2 months at 30° C. ([1]; storage, 1460 h): 78%
- stability in the presence of polyethylene glycol, or a derivative thereof [2]: improved stability
SMILES: C/C(=C\C(=O)OCCCCCCCCC(=O)O)C[C@@H]1OC[C@H](C[C@@H]2O[C@H]2[C@@H](C)[C@H](C)O)[C@@H](O)[C@H]1O [Pseudomonic acid]
- stability in the presence of acid [3]: tend to undergo a rearrangement reaction in the presence of acid
